Results as given in patent publication US20210038668A1, “TRADITIONAL CHINESE MEDICINE COMPOSITION FOR PREVENTING AND/OR TREATING ISCHEMIC REPERFUSION INJURY” (TASLY PHARMACEUTICAL GROUP CO., LTD., priority 2018, published 2021).

Tests used:
[1] = test system: Claudin-5; assay: Western blotting of Claudin-5, endothelial cells after hypoxia/reoxygenation; type: cell-based; details: rat brain endothelial cells, hypoxia 4.5 h/reoxygenation 3 h; tPA 20 mcg/ml alone (model group); T541 400 mcg/ml + tPA 20 mcg/ml
From the text: Establishment of rat brain endothelial cell H/R model: rat brain endothelial cells were purchased from ATCC, and then subcultured to 5-6 generations in normal conditions for further experiment. […]

[2] = test system: cerebral hemorrhage; assay: Hemoglobin in right hemisphere tissue (cerebral hemorrhage); type: in vivo, C57BL/6 mice; details: 24 h after administration, tPA 10 mg/kg alone, T541 20 mg/kg + tPA 10 mg/kg
Protocol: After reperfused for 24 hours, mice were perfused via heart by a PBS buffer precooled at 4° C. and separated brain via craniotomy; the brain was cut from front to back into 5 slices in a brain stereotaxic apparatus; bleeding condition was rapidly shoot by a stereoscopic microscope; then slices were stored at −80° C.; and hemoglobin was measured by a hemoglobin spectrophotometry cassette.

[3] = test system: Laminin; assay: Western blotting of Laminin, basement membrane; type: in vivo, C57BL/6 mice; details: brain tissue 24 hours after administration, sham = 1.00; tPA 10 mg/kg alone; T541 20 mg/kg + tPA 10 mg/kg
Protocol: (§1) After reperfused for 24 hours, mice were perfused by normal saline; Western blotting analysis was conducted to the penumbra field of infarcted right cerebral cortex. After perfused, mice brain tissue was taken out; cerebellum and prefrontal lobe were cut off; the brain tissue of right brain close to 1 cm of the central joint of left and right hemispheres along the sagittal view; infarcted penumbra field of the rest tissues was cut off along an 45° angle; the cerebral cortex of the penumbra field was peeled off and preserved at low temperature. Right cerebral cortex was taken and added 1×RIPA lysate and a Cocktail protease inhibitor (1:100, Cell Signaling Technology, US) for full pyrolysis and ultrasonic treatment, and then 17000 g were centrifuged for 30 minutes. Supernatant was taken and added 5×loading buffer by volume, boiled for 20 minutes in boiling water, and then preserved at −80° C. Excessive supernatant was taken out and quantified by a BCA protein quantification liquor (ThermoScientific, US) to measure absorbance value at 560 nm of ELIASA and to calculate the protein concentration according to a standard curve. […] The density of electrophoretic strips was analyzed by an image analysis software Quantityone. […]

[4] = test system: mitochondrial complex II; assay: Mitochondrial complex II activity in brain tissue; type: in vivo, C57BL/6 mice; details: brain tissue 24 hours after administration; tPA 10 mg/kg alone or + T541 20 mg/kg or ingredients at Table 7 doses
From the text: To compare the therapeutical effect on reperfusion injury caused by tPA thrombolysis between the traditional Chinese medicinal composition of the present invention and each ingredient (total saponins of Astragalus, the experiment was divided into the following group (tPA is combined with T541, individual ingredient thereof and compatibility of any two ingredients) specifically as follows: tPA+total saponins of Astragalus (tPA+HQ), tPA+ salvianolic acids (tPA+DS), tPA+Panax notoginseng saponins (tPA+SQ), tPA+ total saponins of Astragalus+salvianolic acids (tPA+HQ+DS), tPA+ total saponins of Astragalus+Panax notoginseng saponins (tPA+HQ+SQ), tPA+ salvianolic acids+Panax notoginseng saponins (tPA+DS+SQ) and tPA+T541. Normal saline served as an isovolumetric control. The usage number in each group is 6.
ELISA adsorption kit was used to measure the change on the content of MDA, 8-hydroxyl-2′-deoxyguanosine (8-OHdG), adenosine triphosphate (ATP), adenosine diphosphate (ADP) and adenosine monophosphate (AMP) in the penumbra field of brain tissue cortex of the mode, and the change on the activity of mitochondrial complexes I, II, IV and V. 6 samples were used to repeat the independent experiment for at least three times for each group of data.

[5] = test system: ATP5D; assay: ATP5D content in brain tissue; type: in vivo, C57BL/6 mice; details: brain tissue 24 hours after administration, sham = 1.00; tPA 10 mg/kg alone; T541 20 mg/kg + tPA 10 mg/kg
Protocol: as §1

Substance: tPA: tissue-type plasminogen activator (tPA) for thrombolysis
- Claudin-5/β-actin [1]: 0.40 ± 0.06
- Hemoglobin [2]: 13.55 ± 3.72
- Laminin content [3]: 0.47 ± 0.06
- Complex II activity [4]: 0.025 ± 0.005
- ATP5D [5]: 0.71 ± 0.05
